Results: article PMC5608352, “Formyl peptide derived lipopeptides disclose differences between the receptors in mouse and men and call the pepducin concept in question” (PLoS ONE, 2017)
Residues, ends and D or L forms follow the SMILES beside them. *: point of attachment. Palmitoyl = CCCCCCCCCCCCCCCC(=O)*

Legend:
[1] = target: T1, Fpr2 (Mus musculus, UniProt O88536); test: Inhibition of F2Pal16-induced superoxide release, WT mouse neutrophils; format: cell-based; conditions: Boc2 2 μM or peptidomimetic inhibitor 1 μM (five experiments), or mF2Pal16 500 nM against F2Pal16 500 nM (three experiments); 5 min pre-incubation
T1 construct: WT mouse neutrophils (5 x 10^4 cells) were pre-incubated without (solid line) or with mF2Pal16; endogenous in cells; host or cells: bone marrow neutrophils of C57BL/6 wild-type mice, TNF-alpha primed
T1 sequence (O88536 1-351): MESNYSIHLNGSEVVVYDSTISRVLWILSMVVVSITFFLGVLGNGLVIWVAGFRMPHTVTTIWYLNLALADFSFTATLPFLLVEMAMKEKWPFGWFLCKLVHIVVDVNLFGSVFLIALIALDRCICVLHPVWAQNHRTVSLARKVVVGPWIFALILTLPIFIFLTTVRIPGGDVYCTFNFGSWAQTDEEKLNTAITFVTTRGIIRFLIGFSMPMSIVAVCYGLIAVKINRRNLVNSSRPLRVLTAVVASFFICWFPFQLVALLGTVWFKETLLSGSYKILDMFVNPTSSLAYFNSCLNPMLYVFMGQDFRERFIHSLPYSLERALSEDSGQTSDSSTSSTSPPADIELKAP
Excerpt: (§1) Mice (8–12 weeks of age) were killed by cervical dislocation, the femurs and tibias were removed and freed of soft tissue attachments, and the extreme distal tip of each extremity was cut off. KRG without Ca^2+ and Mg^2+ (KRG-) was forced through the bone by using a 1-mL syringe with a 27-gauge needle. After dispersing cell clumps and removing the debris, the bone marrow granulocytes were isolated according to an earlier described procedure with some modifications. Briefly, a cell suspension in 2 mL of KRG- was laid on top of a three-layer Percoll gradient (1.095, 1.085, and 1.070 g/mL). The density of each Percoll solution was verified using density marker beads. After centrifugation at 500 × g for 30 min at 4°C in a swinging bucket rotor, the lowest band (1.085/1.095 g/mL interface) was collected as the neutrophil fraction. After washing with KRG-, remaining red blood cells were eliminated by hypotonic lysis. After a final wash with KRG-, the cells were resuspended in KRG. The cell number and population of bone marrow cells were determined by flow cytometry based on forward scatter (size) and side scatter (density) localization.
(§2) NADPH-oxidase activity was determined using an isoluminol and HRP-enhanced chemiluminescence (CL) system that allow for the determination of superoxide production. The CL activity was measured in a six-channel Biolumat LB 9505 apparatus (Berthold Co., Wildbad, Germany), using disposable 4-mL polypropylene tubes with 1 mL reaction mixture. […] The light emission was recorded continuously over time and presented as superoxide production (in arbitrary light units, cpm x10^-6) as a function of time (min). The activity before stimulus addition was recorded as basal line and this activity was not changed in vehicle control samples. […]
Data analysis was performed using Graph Pad Prism 7.0. The EC50/IC50 values were determined from experiments in which the activities were normalized to the response induced by maximal response or induced by agonist in the absence of inhibitor. […]

[2] = target: T1, Fpr2; test: Inhibition of F1Pal16-induced superoxide release, WT mouse neutrophils; format: cell-based; conditions: mF2Pal16 250 nM, 5 min pre-incubation, F1Pal16 500 nM, one of three experiments
Excerpt: as §1, with “After centrifugation at 500 × g for 30 min at 4°C in a swinging bucket rotor, the lowest band (1.085/1.095 g/mL interface) was collected as the neutrophil fraction. After washing with KRG-, remaining red blood cells were eliminated by hypotonic lysis. After a final wash with KRG-, the cells were resuspended in KRG.” left out
as §2, with “(min).” for “(min). The activity before stimulus addition was recorded as basal line and this activity was not changed in vehicle control samples.”

CCCCCCCCCCCCCCCC(=O)N[C@@H](CCCCN)C(=O)N[C@H](C(=O)N[C@@H](CC(N)=O)C(=O)N[C@@H](CCCNC(=N)N)C(=O)N[C@@H](CCCNC(=N)N)C(=O)N[C@@H](CC(N)=O)C(=O)N[C@@H](CC(C)C)C(=O)N[C@H](C(=O)N[C@@H](CC(N)=O)C(=O)N[C@@H](CO)C(=O)N[C@@H](CO)C(=O)N[C@@H](CCCNC(=N)N)C(=O)N1CCC[C@H]1C(=O)N[C@@H](CC(C)C)C(=O)N[C@@H](CCCNC(=N)N)C(=O)N[C@H](C(=O)O)C(C)C)C(C)C)[C@@H](C)CC [mF2Pal16] (Palmitoyl-KINRRNLVNSSRPLRV-OH; C-terminus assumed)
effect of inhibitor on F2Pal16 response, WT mouse neutrophils [1]: inhibitory effect | effect of mF2Pal16 on F1Pal16 response, WT mouse neutrophils [2]: inhibits the activity of F1Pal16 in mouse neutrophils | effect of mF2Pal16 on F1Pal16 response, WT mouse neutrophils ([2]; listed as mF2pal16): the response was sensitive to the pepducin inhibitor mF2pal16
